Reference: patent EP3445348B1, “FLUORESCENT COMPOUNDS, PRODUCTION METHODS AND USES THEREOF” (Universidade de Aveiro, priority 2016, dated 2017)

Legend:
[1] = test system: HeLa cells; experiment: Resazurin metabolic cell viability assay, HeLa cells; type: cell-based; conditions: Human HeLa live cells, 24h, 1×10^-5 mol.L^-1
Description: (§1) The following figures provide preferred embodiments for the present disclosure and should not be seen as limiting the scope of the disclosure. • Figure 1: Scheme of the fluorophore precursors synthesis. • Figure 2: Synthesis of the fluorophores. • Figure 3: Absorption and emission spectra of some of the fluorophores in a dichloromethane (DCM) solution wherein black squares represent the absorption of (1E,4E)-1,5-bis[4-(dimethylamino)phenyl]penta-1,4-dien-3-one; black circles represent the absorption of (2E,6E)-2,6-bis[4-(dimethylamino)benzylidene]cyclohexanone; black diamonds represent the absorption of 2,6-bis[3-bromo-4-(dimethylamino)benzylidene]cyclohexanone; black triangles pointing up represent the absorption of (1E,4E)-1,5-bis[3-bromo-4-(dimethylamino)phenyl]penta-1,4-dien-3-one; black triangles pointing down represent the absorption of (1E,4E)-1,5-bis[3-chloro-4-(dimethylamino)phenyl]penta-1,4-dien-3-one; black stars represent the absorption of 2,6-bis[3-chloro-4-(dimethylamino)benzylidene]cyclohexanone; open squares represent the emission of (1E,4E)-1,5-bis[4-(dimethylamino)phenyl]penta-1,4-dien-3-one; open circles represent the emission of (2E,6E)-2,6-bis[4-(dimethylamino)benzylidene]cyclohexanone; open diamonds represent the emission of 2,6-bis[3-bromo-4-(dimethylamino)benzylidene]cyclohexanone; open triangles pointing up represent the absorption of (1E,4E)-1,5-bis[3-bromo-4-(dimethylamino)phenyl]penta-1,4-dien-3-one; open triangles pointing down represent the absorption of (1E,4E)-1,5-bis[3-chloro-4-(dimethylamino)phenyl]penta-1,4-dien-3-one; open stars represent the absorption of 2,6-bis[3-chloro-4-(dimethylamino)benzylidene]cyclohexanone. • Figure 4: Sample distributions of two cyclic fluorophores: (2E,6E)-2,6-bis[3-bromo-4-(dimethylamino)benzylidene]cyclohexanone labelled as cyclic-Br and (2E,6E)-2,6-bis[3-chloro-4-(dimethylamino)benzylidene]cyclohexanone labelled as cyclic-Cl (orange pseudocolour) in HeLa cells cultured on coverslips and incubated alive and for 1h with 10^-5 mol.L^-1 of the compounds. The laser line 458 nm was used to excite and the confocal Zeiss LSM-510 META 415 to 750 nm detector used to detect the fluorophores. The nuclear DAPI is used as a counterstaining dye. • Figure 5: Co-localization of the compounds (1E,4E)-1,5-bis[4-(dimethylamino)phenyl]penta-1,4-dien-3-one, labelled as linear-H and (2E,6E)-2,6-bis[3-chloro-4-(dimethylamino)benzylidene]cyclohexanone, labelled as cyclic-Cl with the Trans-Golgi Network (TGN) marker Syntaxin-6, which was Texas Red (red colour) and Alexa-405 (cyan pseudocolour) labelled by using secondary antibodies. DAPI (blue colour) was used as nuclear marker. HeLa cells were incubated in particular for 1h with 1-2×10^-5 mol.L^-1 of the fluorophores, before being fixed. The laser line 405 nm, in particular at 10-20% of its power was used to excite the fluorophores. […] A. Cell viability was determined using the metabolic Resazurin assay, and data (resazurin final O.D.±SD of four independent experiments) presented graphically as percentages of control cells (not incubated with the compounds), wherein the control is labelled as Ctrl; (1E,4E)-1,5-bis[4-(dimethylamino)phenyl]penta-1,4-dien-3-one is labelled as L-H; (1E,4E)-1,5-bis[3-chloro-4-(dimethylamino)phenyl]penta-1,4-dien-3-one is labelled as L-Cl; (1E,4E)-1,5-bis[3-bromo-4-(dimethylamino)phenyl]penta-1,4-dien-3-one is labelled as L-Br; (2E,6E)-2,6-bis[4-(dimethylamino)benzylidene]cyclohexanone labelled is labelled as C-H; 2,6-bis[3-chloro-4-(dimethylamino)benzylidene]cyclohexanone is labelled as C-Cl; 2,6-bis[3-bromo-4-(dimethylamino)benzylidene]cyclohexanone is labelled as C-Br. Statistical significance using the student-t test: *p<0.05; **p<0.01. B. Microphotograph of Cyclic-Cl distribution in HeLa and MC3T3 cells upon 24h of exposure to the compounds. Microscope settings used: a 40×/1.3 oil objective; HFT 405/488/633; in particular a 405 nm laser line at 40% of its power. […]

[2] = test system: MC3T3 live cells; experiment: Resazurin metabolic cell viability assay, MC3T3 cells; type: cell-based, rat; conditions: 24h, 1×10^-5 mol.L^-1
Description: as §1

[3] = comparison compound; cited from earlier work

SMILES | cytotoxicity (cell viability, resazurin reduction) [1] | cytotoxicity (cell viability, resazurin reduction) [2] | storage stability [3]
CN(C)c1ccc(/C=C2\CCC/C(=C\c3ccc(N(C)C)c(Cl)c3)C2=O)cc1Cl [cyclic-Cl, (2E,6E)-2,6-bis[3-chloro-4-(dimethylamino)benzylidene]cyclohexanone] | not cytotoxic | not cytotoxic | 
CN(C)c1ccc(/C=C/C(=O)/C=C/c2ccc(N(C)C)c(Cl)c2)cc1Cl [linear-Cl, (1E,4E)-1,5-bis[3-chloro-4-(dimethylamino)phenyl]penta-1,4-dien-3-one] | not cytotoxic | not cytotoxic | 
CN(C)c1ccc(/C=C2\CCC/C(=C\c3ccc(N(C)C)cc3)C2=O)cc1 [cyclic-H, (2E,6E)-2,6-bis[4-(dimethylamino)benzylidene]cyclohexanone] | not cytotoxic | not cytotoxic | 
CN(C)c1ccc(/C=C/C(=O)/C=C/c2ccc(N(C)C)c(Br)c2)cc1Br [linear-Br, (1E,4E)-1,5-bis[3-bromo-4-(dimethylamino)phenyl]penta-1,4-dien-3-one] | not cytotoxic | not cytotoxic | 
CN(C)c1ccc(/C=C/C(=O)/C=C/c2ccc(N(C)C)cc2)cc1 [linear-H, (1E,4E)-1,5-bis[4-(dimethylamino)phenyl]penta-1,4-dien-3-one] | not cytotoxic | not cytotoxic | 
CN(C)c1ccc(/C=C2\CCC/C(=C\c3ccc(N(C)C)c(Br)c3)C2=O)cc1Br [cyclic-Br, (2E,6E)-2,6-bis[3-bromo-4-(dimethylamino)benzylidene]cyclohexanone] | not cytotoxic | not cytotoxic | 
CCN(CC)c1ccc2nc3c4ccccc4c(=O)cc-3oc2c1 [Nile Red, 9-diethylamino-5H-benzo[a]phenoxazine-5-one] |  |  | stable if kept at -20 °C
